# US20070054325A1, “Materials and methods for screening modulators of neural regeneration” (REGLIA, priority 2005, published 2007)
# Like-named read-outs stand apart in the source and are kept apart here. Bridges are numbered along the chain shown (N, C = ends). Where no end group is shown, it is not given here.
# What was measured:
# ETBR = settings: Rogers et al., Glia 2003, cited from earlier work
# C3aR = target: T1, C3aR (Mus musculus, UniProt O09047); experiment: Basal neurogenesis in mice treated with a C3aR antagonist (BrdU/Dcx/NeuN immunostaining); format: in vivo, wild-type C57BL/6 mice; settings: for number of Dcx^posBrdU^pos cells, lower compared to control mice: 500 μg/mouse twice daily for 10 days
# T1 construct: wild-type C57BL/6 mice (8 week old male; n=12) were injected with a nonpeptide antagonist of the C3aR; from tissue; host or cells: living wild-type C57BL/6 mice; read-out in brain (SVZ, dentate gyrus, olfactory bulb)
# T1 sequence (O09047 1-477): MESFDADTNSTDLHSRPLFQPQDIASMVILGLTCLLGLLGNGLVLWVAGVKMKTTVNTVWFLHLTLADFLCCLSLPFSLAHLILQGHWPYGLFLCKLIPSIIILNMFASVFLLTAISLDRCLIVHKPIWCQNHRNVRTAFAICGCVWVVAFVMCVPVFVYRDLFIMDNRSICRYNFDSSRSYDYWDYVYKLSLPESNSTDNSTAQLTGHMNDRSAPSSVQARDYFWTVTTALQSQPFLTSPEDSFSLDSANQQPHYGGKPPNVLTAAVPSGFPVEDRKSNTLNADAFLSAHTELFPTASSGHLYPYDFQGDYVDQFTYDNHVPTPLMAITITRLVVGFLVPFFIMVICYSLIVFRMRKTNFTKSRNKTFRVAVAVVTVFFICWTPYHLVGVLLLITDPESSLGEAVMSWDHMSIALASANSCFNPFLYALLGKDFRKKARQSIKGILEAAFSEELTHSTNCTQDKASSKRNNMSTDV
# Experimental: To assess whether signaling through the C3aR plays a role in basal neurogenesis, wild-type C57BL/6 mice (8 week old male; n=12) were injected with a nonpeptide antagonist of the C3aR, SB290157 (Calbiochem, San Diego, Calif., USA; 500 μg/mouse; Ames et al., J. Immunol. 166:6341-6348, 2001) diluted in PBS and DMSO (1.16% v/v) twice daily or vehicle for 10 days. Control mice (n=10) were given PBS and DMSO (1.16% v/v). During the first 7 days, all the mice also received bromodeoxyuridine (BrdU) (Sigma-Aldrich; 200 mg/kg). On day 10 after the first injection, the mice were deeply anesthetized and perfused.
# Mouse brains were embedded in paraffin, cut into 8-μm sections, and stained with hematoxylin and erytrosin. For immunohistochemical evaluation, the sections were deparaffinized, permeabilized in 0.01 M citric acid (pH 6.0), heated twice for 5 min each in a microwave oven for antigen retrieval, and blocked with 0.1% BSA and 0.05% Triton-X-100 in PBS. Negative control was performed by omitting the primary antibody, unless stated otherwise.
# Newly formed neurons were visualized by staining with biotinylated mouse anti-NeuN monoclonal antibody (Chemicon, Temecula, Calif., USA; 1:100) followed by Cy3-conjugated streptavidin (Sigma-Aldrich; 1:100) or Alexa633-conjugated streptavidin (Molecular Probes; 1:500) in combination with FITC-conjugated rat anti-BrdU antibody (Accurate Chemical, Westbury, N.Y., USA; 1:75). NeuN^pos BrdU^pos cells were counted in the penumbra on 2-3 sections per mouse. BrdU^pos cells were also counted in the SVZ. The sections were further stained with mouse anti-BrdU antibody (DAKO; 1:100) and Alexa 568 conjugated goat anti-mouse Ig (Molecular Probes; 1:500). BrdU^pos and NeuN^posBrdU^pos cells were counted in one hemisphere on 4-12 sections 160 μm apart/region in the granular layer of the olfactory bulb (bregma 3.2 mm to 4.28 mm) and dentate gyrus subgranular zone (bregma −1.34 mm to −3.64 mm).
# Migrating neural progenitor cells were detected with goat anti-doublecortin (Dcx) antibody (Santa Cruz Biotechnology, Santa Cruz, Calif., USA; 1:50) followed by Alexa488-conjugated donkey anti-goat Ig (Molecular Probes; 1:100). Sections were further stained with mouse anti-BrdU antibody. BrdU^pos and Dcx^posBrdU^pos cells were counted in one hemisphere on 4-12 sections 160 μm apart/region in the SVZ (bregma 0.14 mm to 1.1 mm), the granular layer of the olfactory bulb (bregma 3.2 mm to 4.28 mm), and dentate gyrus subgranular zone (bregma −1.34 mm to −3.64 mm).
# Proliferating migrating neuroblasts (Dcx^posBrdU^pos), newly formed neurons (NeuN^posBrdU^pos) and BrdU^pos cells were counted in the two principal sites of adult neurogenesis, SVZ and the dentate gyrus subgranular zone of the hippocampus, as well as in the olfactory bulb, the final destination for the neuroblasts originating in SVZ under basal conditions. In all three regions, the number of Dcx^posBrdU^pos cells was reduced in mice that received the C3aR antagonist. […] Also, the fraction of these cells among the BrdU^pos cells was reduced in the C3aR antagonist-treated mice: 19.0±1.1 vs. 26.7±1.7%, P<0.005 in the olfactory bulb; 13.1±0.6 vs. 17.3±0.8%, P<0.0005 in the dentate gyrus subgranular zone; and 26.4±0.8 vs. 31.4±1.2%, P<0.005 in the SVZ. […] The fraction of these cells among the BrdU^pos cells was reduced in the C3aR antagonist treated mice: 1.2±0.1 vs. 1.7±0.1%, P<0.005 in the olfactory bulb; 1.7±0.1 vs. 2.3±0.2%, P<0.05 in the dentate gyrus subgranular zone. The number of BrdU^pos cells in any of the regions was not affected by the C3aR antagonist treatment.
# [1] = test system: Neural stem cells, e.g., HCNA 94/GFPH; experiment: Neural stem cell differentiation assay (MAP2 immunostaining, DAPI); format: cell-based
# Experimental: It was previously known that it was possible to modulate cells, other than neurons, via C3aR. Accordingly, C3aR antagonists blocked modulation via the receptor and C3aR agonists stimulated the receptor. To evaluate the effect of C3aR agonists on neural stem cell differentiation in vitro, a neural stem cell differentiation assay was performed as set out below.
# Neural stem cells, e.g., HCNA 94/GFPH, were cultured with a C3aR agonist (C3a) at a concentration of either 10 nM or 100 nM for three to ten days in the presence and absence of a known C3aR antagonist, SB290157 (Ames at al., J. Immunol. 166: 6341-6348, 2001), at a concentration of 5-10 μM, administered to the culture either prior to or at the same time as the C3aR agonist. The number of cells that differentiated into neurons was measured by immunostaining with antibodies against MAP2 (Sigma) and visualized using 4′,6-Diamidino-2-phenylindole (DAPI) staining. A compound is regarded as a stimulator of neural stem cell differentiation into neurons if it stimulates differentiation into neurons at a rate at least 25% greater than control cells (cultured in the presence of medium alone). The effect of the C3aR agonist on neural stem cell differentiation was not blocked by SB290157 (see Table 5 below). Thus, SB290157 was not effective in inhibited neuronal cell differentiation at the concentrations tested.
compound,measurement,setting,value
COc1ccccc1Oc1c(NS(=O)(=O)c2ccc(C(C)(C)C)cc2)nc(-c2ncccn2)nc1OCCO [Bosenthan],effect on astrocyte hypertrophy,ETBR; ETBR antagonist in CNS trauma,reduced astrocyte hypertrophy
NC(N)=NCCC[C@H](NC(=O)COCC(c1ccccc1)c1ccccc1)C(=O)O [SB290157],"number of Dcx^posBrdU^pos cells, lower compared to control mice","C3aR; SVZ, P<0.05",12.5%
same,fraction of Dcx^posBrdU^pos cells among the BrdU^pos cells,"C3aR; SVZ, control 31.4±1.2%, P<0.005",26.4±0.8%
same,number of BrdU^pos cells,"C3aR; any of the regions (SVZ, dentate gyrus subgranular zone, olfactory bulb)",not affected
same,"number of Dcx^posBrdU^pos cells, lower compared to control mice","C3aR; dentate gyrus subgranular zone, P<0.0005",27%
same,fraction of NeuN^posBrdU^pos cells among the BrdU^pos cells,"C3aR; dentate gyrus subgranular zone, control 2.3±0.2%, P<0.05",1.7±0.1%
same,fraction of Dcx^posBrdU^pos cells among the BrdU^pos cells,"C3aR; dentate gyrus subgranular zone, control 17.3±0.8%, P<0.0005",13.1±0.6%
same,reduction in the number of NeuN^posBrdU^pos cells,"C3aR; olfactory bulb and dentate gyrus subgranular zone, P<0.005",22-25%
same,"number of Dcx^posBrdU^pos cells, lower compared to control mice","C3aR; olfactory bulb, P<0.0005",34%
same,fraction of NeuN^posBrdU^pos cells among the BrdU^pos cells,"C3aR; olfactory bulb, control 1.7±0.1%, P<0.005",1.2±0.1%
same,fraction of Dcx^posBrdU^pos cells among the BrdU^pos cells,"C3aR; olfactory bulb, control 26.7±1.7%, P<0.005",19.0±1.1%
same,inhibition of the C3aR agonist effect on neural stem cell differentiation,"[1]; SB290157 5-10 μM, given prior to or with C3a 10 or 100 nM",not effective
same,% of MAP2+ Cells Among All DAPI+ Cells (Mean ± SEM),"[1]; SD290157 5 μM alone, culture medium alone 2.54 ± 0.12",2.70 ± 0.19%
"endothelin 1: endothelin peptide, an ETBR agonist (CSCSSLMDKECVYFCHLDIIW; disulfide 1-15, 3-11; ends not checked; UniProt P05305 53-73, looked up)",effect on astrocyte hypertrophy,ETBR; ETBR agonist administration,leads to astrocyte hypertrophy
